Experimental findings from publication PMC11609934, “Exploration and characterization of the antimalarial activity of cyclopropyl carboxamides that target the mitochondrial protein, cytochrome b” (European Journal of Medicinal Chemistry, 2024) are described below.

≈ marks a conversion by molar mass, not a printed value.

The nature of series [1]: Human liver microsome stability. The note with it: pooled human liver microsomes. Format: in vitro ADME. How it is done:
Human Liver Microsome Stability. A solution of the test compounds in phosphate buffer solution (1 μM) was incubated in pooled human liver microsomes (0.5 mg/mL) for 0, 5, 20, 30, 45 and 60 min at 37 °C in the presence and absence of NADPH regeneration system. The reaction was terminated with the addition of ice-cold acetonitrile containing system suitability standard at designated time points. […] The experiment was carried out in duplicate. Verapamil, diltiazem, phenacetin, and imipramine were used as reference standards.

Series [2] deals with Pf Dd2 strain with an I22L mutation in the Qi site cyt b. Nature of the series: Cyt b resistant asexual stage assay, Dd2 cyt b(I22L). In kind it is cell-based. The note with it: Plasmodium falciparum, DD2, 72 h, read-out: Pf cyt b mutant strains EC50 (SD) Dd2 cyt b(I22L). Here is the method: (§1) To determine whether the cyclopropyl carboxamide series specifically targets the Qo site of cyt b, representative analogs W466 (1), W499 (2), and the focal compound here-on referred to as WJM280 (108) were evaluated against drug-resistant parasite strains with mutations in the Qo or Qi site of cyt b. […] These mutations are mapped to a model of cyt b in Fig. 3.
(§2) Cyt b Resistant and ScDHODH Asexual Stage Assays. These assays were conducted as previously described. Briefly, asexual parasite strains indicated in Table 12 were incubated with compound in a dose response format for 72 h. Parasitemia was determined using SYBR-green fluorescence measured by flow cytometry (Thermo Fisher Attune). EC50 values were determined as described for the LDH assay.

The subject of series [3] is Pf Dd2 expressing ScDHODH. Nature of the series: ScDHODH asexual stage assay. The note with it: Plasmodium falciparum, DD2, 72 h, read-out: Dd2 ScDHODH EC50 (SD). Format: cell-based. Here is the method: (§3) DHODH is essential for the function of the mitochondria ETC and pyrimidine biosynthesis. Compounds that inhibit cyt b typically have reduced activity against parasite strains with increased DHODH levels. To support evidence that the cyclopropyl carboxamide series impacts the mitochondrial ETC, selected analogs were evaluated against both the SB1-A6 strain that has a 2-fold amplification and a C276F SNP in PfDHODH [24] and a Dd2 strain that expresses Saccharomyces cerevisiae DHODH (ScDHODH). ScDHODH has low sequence homology to PfDHODH and is ubiquinone-independent in that it uses fumarate instead of mitochondrial coenzyme Q as an electron acceptor and therefore compounds that inhibit the Plasmodium mitochondrial ETC have reduced activity against the ScDHODH parasite strain.
as §2

Series [4] can be described thus: eLogD (shake-flask, pH 7.4). In kind it is physicochemical. The note with it: 1-octanol/phosphate buffered saline (1:1, v/v), Shake-flask method. Here is the method: eLogD. The LogD (pH 7.4) assay was performed using a miniaturized shake flask method. A solution of a pre-saturated mixture of 1-octanol and phosphate buffered saline (PBS) (1:1, v/v) and the test compound (75 μM) was incubated at 25 °C with constant shaking (850 rpm) for 2 h. After incubation the organic and aqueous phases were separated, and samples of each phase transferred to plate for dilution. The organic phase was diluted to 1000-fold and the aqueous phase was diluted 20-fold. The samples were quantitated using LC-MS/MS. The experiment was carried out in duplicate. Propranolol, amitriptyline, and midazolam were used as reference standards.

The next series can be described thus: Rat hepatocyte stability. Format: in vitro ADME. The note with it: pooled rat hepatocytes. How it is done: Rat Hepatocyte Stability. A solution of the test compound in Krebs-Henseliet buffer solution (1 μM) was incubated in pooled rat hepatocytes (1 × 10^6 cells/mL) for 0, 15,30,45, 60, 75 and 90 min at 37 °C (5 % CO2, 95 % relative humidity). The reaction was terminated with the addition of ice-cold acetonitrile containing system suitability standard at designated time points. […] The experiment was carried out in duplicate. Diltiazem, 7-ethoxy coumarin, propranolol, and midazolam were used as reference standards.

A short description of series [5]: Human HepG2 growth inhibition assay (Cell TitreGlo, 48 h). Format: cell-based. The conditions noted are these: human, HepG2 cells, HepG2 cell growth inhibition over 48 h. The gist of the method:
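HepG2 cells (1000/well, DMEM + 10% FCS) exposed 48 h at 37 °C, 5% CO2 to compound from 50 μM top concentration in 1:2 dilutions, 0.5% DMSO final. Viability read by Cell Titer Glo, normalised to DMSO and 10 μM bortezomib; EC50 by four-parameter variable-slope fit.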

Series [6] can be described thus: Aqueous solubility (kinetic in PBS, pH 7.4). In kind it is physicochemical. The conditions noted are these: phosphate buffered saline. How it is done:
Solubility. The solubility assay was performed using a miniaturized shake flask method. A solution of phosphate buffered saline (PBS) and the test compound (200 μM) was incubated at 25 °C with constant shaking (600 rpm) for 2 h. The samples were filtered using a multiscreen solubility filter plate. The filtrate was half diluted in acetonitrile. A five-point linearity curve was prepared in PBS:acetonitrile (1:1, v/v) at 200, 150, 75, 25 and 2.5 μM. Blank, linearity and test samples (n = 2) were transferred to a UV readable plate and the plate was scanned for absorbance. Best fit calibration curves were constructed using the calibration standards and used to determine the test sample solubility. The experiment was carried out in duplicate. Diethylstilbestrol, haloperidol, and diclofenac sodium were used as reference standards.

Series [7] relates to Pf 3D7 3-oxadiazole quinolone resistant strain with a V259L mutation in the Qo site of cyt b. Put plainly: Cyt b resistant asexual stage assay, 3D7 cyt b(V259L). The note with it: for EC50: Plasmodium falciparum, 3D7, 72 h, read-out: Pf cyt b mutant strains EC50 (SD) 3D7 cyt b(V259L). Format: cell-based, Plasmodium falciparum. How it is done:
as §1, §2

Another series concerns Pf SB1-A6 strain. Nature of the series: Asexual stage assay, SB1-A6 strain. In kind it is cell-based. The conditions noted are these: Plasmodium falciparum, 72 h, read-out: SB1-A6 EC50 (SD). How it is done: as §3, §2

In [1], `O=C(NC1CC1)c1ccc(CN(Cc2ccc(Cl)cc2Cl)C2CC2)cc1` [W499 (2)] registered a microsomal CLint at 1 h, 1 µM of 177 µL/min/mg. In addition, the half-maximal effective concentration (EC50) in series [2] is 49 nM; in [3], greater than 10000 nM; in series [7] it was 165 nM; in the series on Pf SB1-A6 strain it was greater than 10000 nM. Moreover, the logD at 2 h in series [4] came to 4.1. This compound also gave an intrinsic metabolic clearance (hepatocyte CLint) at 1 μM in “Rat hepatocyte stability” greater than 92 µL/min/1e6 cells. Further, the cytotoxic concentration (CC50) at 48 h in [5] was greater than 40000 nM. In series [6], this compound yielded a solubility at 2 h of 7.4 µM (≈ 2.88 µg/mL). The “fold reduction in activity against cyt b V259L Qo site mutant compared to the Dd2 parent strain” value in [7] came out at 1.5 fold.

With `CCCN(Cc1ccc(C(=O)NC2CC2)cc1)Cc1ccc(C(F)(F)F)cc1` [WJM280 (108), N-Cyclopropyl-4-((propyl(4-(trifluoromethyl)benzyl)amino)methyl)benzamide], in [1], the microsomal CLint at 1 h, 1 µM is 62 µL/min/mg. The EC50 in series [2] is 2 nM; in series [3], greater than 10000 nM; in series [7], 23 nM; with Pf SB1-A6 strain, greater than 10000 nM. Further, in series [4], the logD at 2 h was 5.2. The same compound registered a hepatocyte CLint at 1 μM in “Rat hepatocyte stability” greater than 92 µL/min/1e6 cells. In series [5], this compound yielded a CC50 at 48 h of 15000 nM. In series [6], this compound had a solubility at 2 h of 15 µM (≈ 5.86 µg/mL). For the same compound, the “fold reduction in activity against cyt b V259L Qo site mutant compared to the Dd2 parent strain” value in [7] worked out at 2 fold.
